These results are taken from US12668600B2 (Kumquat Biosciences Inc., priority 2023, dated 2026).

One may read the IC50 as the concentration that inhibits the measured activity by half.

SMILES strings stand for the structures. Some results are limits rather than exact numbers.

What all share (assay type): biochemical
Test [1] concerns the target T1, KRAS G12S (Homo sapiens, UniProt P01116, G12S).
T1 construct: made in house; host or cells: E. coli, e.g. BL21 (DE3)
The test is described as follows: HTRF KRAS-SOS1 interaction assay, KRAS G12S. The conditions noted are these: binned ≤2 μM / >2 μM, read-out: Inhibition of KRAS G12S (IC50). The method, boiled down: (§1)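 Read-out: HTRF ratio 665/620 nm after ≥10 min incubation of compound with GST-KRAS/anti-GST-Eu and His-hSOS1/anti-6His-XL665. Duplicate dose series, 10 μM down to 0.01 μM. Buffer HEPES pH 7.4, NaCl, DTT, BSA, Igepal.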

Test [2] has as its target T2, KRAS WT (Homo sapiens, UniProt P01116).
T2 construct: made in house; host or cells: E. coli, e.g. BL21 (DE3)
Description: HTRF KRAS-SOS1 interaction assay, wildtype KRAS. The conditions noted are these: binned ≤2 μM / >2 μM, read-out: Inhibition of KRAS WT (IC50). The method, boiled down:
as §1
Background: TR-FRET usually uses a lanthanide donor and a delayed reading to cut background.

The target in test [3] is T3, KRAS G12V (Homo sapiens, UniProt P01116, G12V).
T3 construct: made in house; host or cells: E. coli, e.g. BL21 (DE3)
T3 sequence (P01116 1-188 isoform P01116-2 G12V): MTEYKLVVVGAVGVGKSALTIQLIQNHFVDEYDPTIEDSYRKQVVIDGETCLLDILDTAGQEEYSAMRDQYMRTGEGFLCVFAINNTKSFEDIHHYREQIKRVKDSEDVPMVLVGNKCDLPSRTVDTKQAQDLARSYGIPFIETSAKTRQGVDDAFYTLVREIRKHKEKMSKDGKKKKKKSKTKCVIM
The test is described as follows: HTRF KRAS-SOS1 interaction assay, KRAS G12V. The note with it: binned ≤2 μM / >2 μM, read-out: Inhibition of KRAS G12V (IC50). The method, boiled down:
as §1

Test [4] addresses T4, KRAS G12D (Homo sapiens, UniProt P01116, G12D).
T4 construct: made in house; host or cells: E. coli, e.g. BL21 (DE3)
Description: HTRF KRAS-SOS1 interaction assay, KRAS G12D. The note with it: binned ≤2 μM / >2 μM, read-out: Inhibition of KRAS G12D (IC50). The method, boiled down:
as §1

T2 sequence (P01116 1-188 isoform P01116-2): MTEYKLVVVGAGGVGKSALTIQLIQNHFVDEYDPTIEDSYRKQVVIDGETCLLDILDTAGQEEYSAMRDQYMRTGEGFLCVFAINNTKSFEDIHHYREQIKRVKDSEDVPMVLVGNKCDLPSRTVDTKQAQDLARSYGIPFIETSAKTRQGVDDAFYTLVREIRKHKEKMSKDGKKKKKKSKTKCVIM
T1 sequence (P01116 1-188 isoform P01116-2 G12S): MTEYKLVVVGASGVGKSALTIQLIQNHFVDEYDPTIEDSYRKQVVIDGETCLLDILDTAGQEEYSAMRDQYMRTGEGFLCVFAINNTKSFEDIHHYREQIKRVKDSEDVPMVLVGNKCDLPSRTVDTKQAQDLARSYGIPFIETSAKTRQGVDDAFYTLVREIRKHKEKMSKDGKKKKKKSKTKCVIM
T4 sequence (P01116 1-188 isoform P01116-2 G12D): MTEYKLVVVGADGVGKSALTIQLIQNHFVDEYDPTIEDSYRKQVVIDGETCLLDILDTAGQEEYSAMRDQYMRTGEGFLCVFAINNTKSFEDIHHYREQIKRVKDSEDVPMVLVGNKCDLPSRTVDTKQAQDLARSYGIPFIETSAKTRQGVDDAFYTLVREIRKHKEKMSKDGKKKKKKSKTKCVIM

Turning to `CCO/N=C/C1CN2CCC[C@@]2(COc2nc3c4c(c(Cl)c(-c5ccc(F)c6sc(N)c(C#N)c56)c(F)c4n2)OCCN3[C@H](C)c2cccnc2N)C1` (mixture of isomers) [Compound 711, 2-amino-4-(4-((R)-1-(2-aminopyridin-3-yl)ethyl)-8-chloro-2-(((7aS)-2-((E)-(ethoxyimino)methyl)tetrahydro-1H-pyrrolizin-7a(5H)-yl)methoxy)-10-fluoro-5,6-dihydro-4H-[1,4]oxazepino[5,6,7-de]quinazolin-9-yl)-7-fluorobenzo[b]thiophene-3-carbonitrile], the IC50 in test [1], in test [2], in test [3] and in test [4] was at most 2000 nM throughout.
Regarding `N#Cc1c(N)sc2cccc(-c3c(Cl)c4c5c(nc(OC[C@@]67CCCN6C[C@H](F)C7)nc5c3F)N([C@@H](c3cccnc3N)C(F)F)CCO4)c12` (single isomer, unassigned) [Compound 672], the IC50 in test [1], in test [2], in test [3] and in test [4] was at most 2000 nM in each case.
Take `C[C@H](c1cccnc1N)N1CCOc2c(C(F)(F)F)c(-c3ccc(F)c4sc(N)c(C#N)c34)c(F)c3nc(OCC4(CN5CCC(F)CC5)CC4)nc1c23` [Compound 836, 2-amino-4-(4-((R)-1-(2-aminopyridin-3-yl)ethyl)-10-fluoro-2-((1-((4-fluoropiperidin-1-yl)methyl)cyclopropyl)methoxy)-8-(trifluoromethyl)-5,6-dihydro-4H-[1,4]oxazepino[5,6,7-de]quinazolin-9-yl)-7-fluorobenzo[b]thiophene-3-carbonitrile]: the half-inhibitory concentration (IC50) in test [1], in test [2], in test [3] and in test [4] was at most 2000 nM throughout.
`C[C@H](c1cc(F)cnc1N)N1CCOc2c(C(F)(F)F)c(-c3ccc(F)c4sc(N)c(C#N)c34)c(F)c3nc(OC[C@@]45CCCN4C[C@H](F)C5)nc1c23` (single isomer, unassigned) [Compound 682]: the IC50 in test [1], in test [2], in test [3] and in test [4] was over 2000 nM each time.
As to `CCN(CC)CCC[C@H](c1cccnc1N)N1CCOc2c(C(F)(F)F)c(-c3ccc(F)c4sc(NC)c(C#N)c34)c(F)c3nc(OC[C@@]45CCCN4C[C@H](F)C5)nc1c23` (single isomer, unassigned) [Compound 832], the IC50 in test [1], in test [2], in test [3] and in test [4] was at most 2000 nM each time.
As to `N#Cc1c(N)sc2c(F)ccc(-c3c(Cl)c4c5c(nc(OC[C@@]67CCCN6C[C@H](F)C7)nc5c3F)N([C@H](/C=C/C(F)F)c3cccnc3N)CCO4)c12` [Compound 731, 2-amino-4-(4-((R,E)-1-(2-aminopyridin-3-yl)-4,4-difluorobut-2-en-1-yl)-8-chloro-10-fluoro-2-(((2R,7aS)-2-fluorotetrahydro-1H-pyrrolizin-7a(5H)-yl)methoxy)-5,6-dihydro-4H-[1,4]oxazepino[5,6,7-de]quinazolin-9-yl)-7-fluorobenzo[b]thiophene-3-carbonitrile], the IC50 in test [1], in test [2], in test [3] and in test [4] was at most 2000 nM in each case.
Regarding `C[C@H](c1cccnc1N)N1CCOc2c(C(F)(F)F)c(-c3ccc(F)c4sc(N)c(C#N)c34)c(F)c3nc(OCC4(CN5[C@H](C)COC[C@@H]5C)CC4)nc1c23` (single isomer, unassigned) [Compound 763], the concentration for half-maximal inhibition (IC50) in test [1], in test [2], in test [3] and in test [4] was at most 2000 nM in each case.
On to `C=C1CN2CC(=C)CC2(COc2nc3c4c(c(C(F)(F)F)c(-c5ccc(F)c6sc(N)c(C#N)c56)c(F)c4n2)OCCN3[C@H](C)c2cncnc2N)C1` (single isomer, unassigned) [Compound 707], for which the 50% inhibitory concentration (IC50) in test [1], in test [2], in test [3] and in test [4] was at most 2000 nM in each case.
Take `N#Cc1c(N)sc2c(F)ccc(-c3c(C(F)(F)F)c4c5c(nc(OC[C@@]67CCCN6C[C@H](F)C7)nc5c3F)N([C@H](CCCN3CCCCC3)c3cccnc3N)CCO4)c12` (single isomer, unassigned) [Compound 704]: the IC50 in test [1], in test [2], in test [3] and in test [4] was at most 2000 nM each time.
For `C[C@H](c1cccnc1N)N1CCOc2nc(-c3ccc(F)c4sc(N)c(C#N)c34)c(F)c3nc(OC[C@@]45CCCN4C[C@H](F)C5)nc1c23` (single isomer, unassigned) [Compound 619], the IC50 in test [1], in test [2], in test [3] and in test [4] was at most 2000 nM in each case.
Regarding `C=C(F)[C@H](c1cccnc1N)N1CCOc2c(Cl)c(-c3ccc(F)c4sc(N)c(C#N)c34)c(F)c3nc(OC[C@@]45CCCN4C[C@H](F)C5)nc1c23` [Compound 694, 2-amino-4-(4-((S)-1-(2-aminopyridin-3-yl)-2-fluoroallyl)-8-chloro-10-fluoro-2-(((2R,7aS)-2-fluorotetrahydro-1H-pyrrolizin-7a(5H)-yl)methoxy)-5,6-dihydro-4H-[1,4]oxazepino[5,6,7-de]quinazolin-9-yl)-7-fluorobenzo[b]thiophene-3-carbonitrile], the IC50 in test [1], in test [2], in test [3] and in test [4] was at most 2000 nM throughout.
Regarding `N#Cc1c(N)sc2c(F)ccc(-c3c(C(F)(F)F)c4c5c(nc(OC[C@@]67CCCN6C[C@@]6(CC6(F)F)C7)nc5c3F)N([C@@H](c3cccnc3N)C(F)F)CCO4)c12` (single isomer, unassigned) [Compound 843], the IC50 in test [1], in test [2], in test [3] and in test [4] was at most 2000 nM each time.
Take `CC[S+]([O-])[C@@H]1C[C@]2(COc3nc4c5c(c(Cl)c(-c6ccc(F)c7sc(N)c(C#N)c67)c(F)c5n3)OCCN4[C@H](C)c3cccnc3N)CCC[N+]2([O-])C1` (mixture of isomers) [Compound 626, (2R,7aS)-7a-(((9-(2-amino-3-cyano-7-fluorobenzo[b]thiophen-4-yl)-4-((R)-1-(2-aminopyridin-3-yl)ethyl)-8-chloro-10-fluoro-5,6-dihydro-4H-[1,4]oxazepino[5,6,7-de]quinazolin-2-yl)oxy)methyl)-2-(ethylsulfinyl)hexahydropyrrolizine 4(1H)-oxide]: the IC50 in test [1], in test [2], in test [3] and in test [4] was at most 2000 nM in each case.
In the case of `N#Cc1c(N)sc2c(F)ccc(-c3c(Cl)c4c5c(nc(OC[C@@]67CCCN6C[C@@]6(CC6(F)F)C7)nc5c3F)N([C@@H](c3cccnc3N)C(F)F)CCO4)c12` [Compound 831, 2-amino-4-(4-((S)-1-(2-aminopyridin-3-yl)-2,2-difluoroethyl)-8-chloro-2-(((1S,7a′S)-2,2-difluorodihydro-1′H,3′H-spiro[cyclopropane-1,2′-pyrrolizin]-7a′(5′H)-yl)methoxy)-10-fluoro-5,6-dihydro-4H-[1,4]oxazepino[5,6,7-de]quinazolin-9-yl)-7-fluorobenzo[b]thiophene-3-carbonitrile], the IC50 in test [1], in test [2], in test [3] and in test [4] was at most 2000 nM throughout.
`N#Cc1c(N)sc2c(F)ccc(-c3c(Cl)c4c5c(nc(OC[C@@]67CCCN6C[C@H](F)C7)nc5c3F)N([C@H](/C=C/C3CC3)c3cccnc3N)CCO4)c12` [Compound 676, 2-amino-4-(4-((R,E)-1-(2-aminopyridin-3-yl)-3-cyclopropylallyl)-8-chloro-10-fluoro-2-(((2R,7aS)-2-fluorotetrahydro-1H-pyrrolizin-7a(5H)-yl)methoxy)-5,6-dihydro-4H-[1,4]oxazepino[5,6,7-de]quinazolin-9-yl)-7-fluorobenzo[b]thiophene-3-carbonitrile]: the IC50 in test [1], in test [2], in test [3] and in test [4] was at most 2000 nM each time.
Turning to `C=CC(F)(F)[C@@H](c1cccnc1N)N1CCOc2c(Cl)c(-c3ccc(F)c4sc(N)c(C#N)c34)c(F)c3nc(OC[C@@]45CCCN4C[C@H](F)C5)nc1c23` [Compound 834, 2-amino-4-(4-((R)-1-(2-aminopyridin-3-yl)-2,2-difluorobut-3-en-1-yl)-8-chloro-10-fluoro-2-(((2R,7aS)-2-fluorotetrahydro-1H-pyrrolizin-7a(5H)-yl)methoxy)-5,6-dihydro-4H-[1,4]oxazepino[5,6,7-de]quinazolin-9-yl)-7-fluorobenzo[b]thiophene-3-carbonitrile], the IC50 in test [1] was at most 2000 nM; in test [2] it was at most 2000 nM; in test [3], at most 2000 nM; in test [4], over 2000 nM.
